The subject of data set [1] is MCF7, T47D, MDA-MB-231 and MDA-MB-468 human breast cancer cell lines. In words: Clonogenic assay (Example 5, FIG. 8), four breast cancer cell lines stated jointly. Format: cell-based. The settings on record: one value for all cell lines of FIG. 8, read-out: IC50, agent alone. Here is the method: (§1) After 48 hours, drugs were withdrawn and allowed to grow in fresh medium for determination of cytotoxicity by clonogenic assay. The data presented are the mean±SE of three different estimations.
(§2) To test this hypothesis, the IC50 of TMZ in four human breast cancer cell lines was determined using a clonogenic assay (Vachai et al., Nat. Proto. 3: 1122-1116, 2006). The cell lines used were MCF7, T47D (both ER/PR/HER2-positive), MDA-MB-231 and MDA-MB-468 (both triple-negative).

Data set [2] concerns MDA-MB468 and MDA-MB-231 human breast cancer cell lines. In words: Cytotoxicity by clonogenic assay (FIG. 4 legend), MDA-MB468 and MDA-MB-231 stated jointly. It is filed as cell-based. The settings on record: MDA-MB468 and MDA-MB-231 cell lines, one value for both; read-out: IC50, agent alone. Here is the method: After 48 hours, drugs were withdrawn and allowed to grow in fresh medium for determination of cytotoxicity by clonogenic assay. Data presented are the mean±SE of three different estimations. […] Data presented are the mean+/−SE of three different estimations.

For data set [3], the system named is T47D and MCF7 human breast cancer cell lines. In words: Cytotoxicity by clonogenic assay (FIG. 3 legend), T47D and MCF7 stated jointly. It is filed as cell-based. The settings on record: one value for both, read-out: IC50, agent alone.
In data set [4] the test system is MDA-MB-468 breast cancer cells. In words: Sulforhodamine B (SRB) colorimetric cytotoxicity assay, MDA-MB-468. As to conditions: for IC50: read-out: IC50 (cytotoxicity), agent alone.
The subject of data set [5] is MDA-MB-231 breast cancer cells. In words: Sulforhodamine B (SRB) colorimetric cytotoxicity assay, MDA-MB-231. As to conditions: for IC50: read-out: IC50 (cytotoxicity), agent alone.
Data set [6] deals with MCF7 breast cancer cells. As to the kind of experiment: Sulforhodamine B (SRB) colorimetric cytotoxicity assay, MCF7. As to conditions: for IC50: read-out: IC50 (cytotoxicity), agent alone. Here is the method: After 48 hours, cells were harvested and processed for cytotoxicity determination by clonogenic assay. Data presented are the mean±SE of three different estimations.
The IC50 (the drug concentration needed to prevent cell proliferation by 50%) of TMZ was determined using a sulforhodamine B (SRB) colorimetric assay. This assay relies on the ability of SRB to bind the protein components of cells that have been fixed to tissue culture plates by trichloroacetic acid (TCA) (Vachai V, Kirtikara K. Sulforhodamine B colorimetric assay for cytotoxicity screening. Nat. Proto. 3: 1122-1116, 2006). MCF7 and T47D cells were seeded in 96-well plates at a density of 500 cells per well. After 24 hours, while the cells were in the log phase of cell growth, the cells were treated with different concentrations of TMZ (1-1000 μM) for 48 hours. […] The cells were subsequently fixed with 10% (w/v) of tricholoroacetic acid, washed with double distilled water, and stained with 0.4% SRB. Cells were then repeatedly washed with 1% (v/v) of acetic acid to remove the unbound dye. The protein bound dye was dissolved in 10 mM Tris-base solution (pH 10.5). The developed color was measured at 564 nm. The percentage of cell survival as a function of drug concentration was then plotted to determine the IC50 value.

Data set [7] deals with T47D breast cancer cells. As to the kind of experiment: Sulforhodamine B (SRB) colorimetric cytotoxicity assay, T47D. Format: cell-based, human. As to conditions: for IC50: read-out: IC50 (cytotoxicity), agent alone. Here is the method: Data are the mean±SE of three different estimations.
The developed color was measured at 564 nm.

Data set [8] has as its system MDA-MB-468 cells. In words: Clonogenic assay (Example 5, FIG. 8), MDA-MB-468. It is filed as cell-based. As to conditions: Homo sapiens, 48 hours, then fresh medium, read-out: IC50 of TMZ alone or in the named combination. The procedure: as §1, §2
Data set [9] relates to MCF7 cells. In words: Clonogenic assay (Example 5, FIG. 8), MCF7. Format: cell-based. The settings on record: Homo sapiens, 48 hours, then fresh medium, read-out: IC50 of TMZ alone or in the named combination. The procedure: as §1, §2
Data set [10] deals with T47D cells. In words: Clonogenic assay (Example 5, FIG. 8), T47D. It is filed as cell-based. The settings on record: Homo sapiens, 48 hours, then fresh medium, read-out: IC50 of TMZ alone or in the named combination. Here is the method:
as §1, §2

For data set [11], the system named is MDA-MB-231 cells. In words: Clonogenic assay (Example 5, FIG. 8), MDA-MB-231. Format: cell-based. As to conditions: Homo sapiens, 48 hours, then fresh medium, read-out: IC50 of TMZ alone or in the named combination. Here is the method: as §1, §2
Data set [12] addresses Pol-β (Homo sapiens, UniProt P06746). In words: In vitro base excision repair (BER) assay with 32P-U-DNA substrate. As to conditions: dose-dependent manner (FIG. 2B). It is filed as biochemical. An excerpt:
The reaction conditions are described below. […] Data are representative of three different experiments.
An assay was developed that permits in vitro analysis of BER as described in FIG. 2A.

Where two headings read alike, the source gives them in different places.

For `COc1cc(/C=C/C(=O)CC(=O)/C=C/c2ccc(O)c(OC)c2)ccc1O` [curcumin, (1E,6E)-1,7-bis(4-hydroxy-3-methoxy-phenyl)hepta-1,6-diene-3,5-dione], the IC50 in data set [1] (Homo sapiens) came out at 5 µM.

In the case of `Cc1cc(S(=O)(=O)Nc2n[nH]c(Nc3ccc(Cl)cc3)n2)c(S)cc1Cl` [NSC-666715, Benzosulfonamide, 4-chloro-N-[5-[(4-chlorophenyl)amino]1H-1,2,4-triazol-3-yl]-2-mercapto-5-methyl-(9Cl)], the IC50 was roughly 100 µM in data set [2], 100 µM in [1] and roughly 100 µM in [3].

`Nc1nc(OCc2ccccc2)c2nc[nH]c2n1` [BG, O^6-benzylguanine]: the IC50 in data set [2] is roughly 75 µM; in data set [4] (MDA-MB-468 cells, 48 hours) it was roughly 100 µM; in data set [5] (MDA-MB-231 cells, 48 hours), roughly 77 µM; in [6] (MCF7 cells, 48 hours) it was roughly 91 µM; in data set [3], roughly 75 µM; in data set [7] (T47D cells, 48 hours), roughly 149 µM.

Consider `Cn1nnc2c(C(N)=O)ncn2c1=O` [TMZ, Temozolomide], for which the IC50 is 316 µM in data set [4] (Homo sapiens, MDA-MB-468, 48 h); 298 µM in data set [8]; 331 µM in [9]; 344 µM in data set [5] (Homo sapiens, MDA-MB-231, 48 h); 303 µM in data set [6] (Homo sapiens, MCF7, 48 h); 334 µM in [10]. The concentration for half-maximal inhibition (IC50) in data set [11] was determined as 334 µM; in data set [7] (Homo sapiens, T47D, 48 h), 303 µM. The “reduction of the IC50 of TMZ” value is “about 6 fold” in data set [4] (MDA-MB-468 cells, TMZ with BG (2.5 μM)); “about 0.1 fold” in [4] (MDA-MB-468 cells, TMZ with NSC-666715 (15 μM)); “about 15 fold” in data set [4] (MDA-MB-468 cells, TMZ with both BG (2.5 μM) and NSC-666715 (15 μM)); “about 2.8 fold” in data set [5] (MDA-MB-231 cells, TMZ with BG (2.5 μM)); “about 1.5 fold” in [5] (MDA-MB-231 cells, TMZ with NSC-666715 (15 μM)); “about 6.6 fold” in data set [5] (MDA-MB-231 cells, TMZ with both BG (2.5 μM) and NSC-666715 (15 μM)). The “reduction of the IC50 of TMZ” value in [6] (MCF7 cells, TMZ with BG (2.5 μM)) is listed as “about 4 fold”; in [6] (MCF7 cells, TMZ with NSC-666715 (15 μM)), “about 1.5 fold”; in data set [6] (MCF7 cells, TMZ with both BG (2.5 μM) and NSC-666715 (15 μM)), “about 7 fold”; in data set [7] (T47D cells, TMZ with BG (2.5 μM)), “about 4 fold”; in [7] (T47D cells, TMZ with NSC-666715 (15 μM)), “about 1.1 fold”; in [7] (T47D cells, TMZ with both BG (2.5 μM) and NSC-666715 (15 μM)), “about 8 fold”. Also, the “reduction in the IC50 of TMZ” value in data set [6] (NSC-666715 and O6-benzylguanine in combination with temozolomide, cell line not stated at this place (figure matches MCF7)) stood at 7 fold.

On to `Nc1cc(I)n([C@H]2C[C@H](O)[C@@H](COP(=O)(O)O)O2)c(=O)n1` [NSC-124854, 5′-cytidylic acid, 2′-deoxy-6-iodo-(9CI)], for which the strand-displacement synthesis result in data set [12] (32P-U-DNA substrate, in the presence of Fen-1) was “blocked”. Further, in [12] (32P-U-DNA substrate), the “Pol-β-mediated 1-nt incorporation” value is “blocked”. Also, the “complete repair of 32P-U-DNA by the SN-BER pathway” value in [12] (with DNA ligase I) was “blocked”. Further, the “complete repair of 32P-U-DNA by the LP-BER pathway” value in [12] (with Fen-1 and DNA ligase I) was “blocked”.

The record behind these values is patent US8815828B2, “Therapeutic combinations for use in neoplasia” (University of Florida Research Foundation, Inc., priority 2008, dated 2014).
